According to patent US20250302927A1, “MODIFIED FACTOR XA POLYPEPTIDES AND METHODS OF USE” (The United States of America, as represented by the …, priority 2022, published 2025):

How the values were obtained:
Male CD-1 mice = assay: Tail clip bleeding model; assay type: in vivo; conditions: for Bleeding profile (bleeding graphs): apixaban 4 mg/kg, FIG. 4D
Experimental: Tail clip bleeding model: Animal experiments were performed at the U.S. FDA/CBER Division of Veterinary Services in accordance with the protocol approved by the institutional animal care and use committee (IACUC). Male CD-1 mice (Charles River Laboratories, Kingston, NY, USA) were 5-8 weeks old weighing 28-34 grams. […] After 5 minutes, 3 mm of tail were cut, after which the tail was immersed in a tube with predefined volume of 0.9% NaCl at 37° C. and allowed to bleed for 30 minutes under close observation. Blood loss was determined by measuring hemoglobin content and expressed as μl/mouse.
The design of the in vivo study in mice is depicted in FIG. 3B. […] The tails of the mice were clipped, and bleeding monitored by measuring bleeding time (FIG. 3C) and blood loss (FIG. 3D). […] All bleeding episodes were plotted using the length and number of episodes of bleeds for each individual mouse (FIG. 3E) to determine the bleeding profiles.
Additional experiments were performed in the mouse model, as above, but with the inclusion of andexanet alfa for comparison. The experimental strategy is depicted in FIG. 4A.

Factor VII (FVII) = molecular target: T1, Factor VII (FVII) (Homo sapiens, UniProt P08709); assay: 1H NMR binding of apixaban to Factor VII; conditions: stoichiometric amounts, FIG. 1H
T1 sequence (P08709 61-466): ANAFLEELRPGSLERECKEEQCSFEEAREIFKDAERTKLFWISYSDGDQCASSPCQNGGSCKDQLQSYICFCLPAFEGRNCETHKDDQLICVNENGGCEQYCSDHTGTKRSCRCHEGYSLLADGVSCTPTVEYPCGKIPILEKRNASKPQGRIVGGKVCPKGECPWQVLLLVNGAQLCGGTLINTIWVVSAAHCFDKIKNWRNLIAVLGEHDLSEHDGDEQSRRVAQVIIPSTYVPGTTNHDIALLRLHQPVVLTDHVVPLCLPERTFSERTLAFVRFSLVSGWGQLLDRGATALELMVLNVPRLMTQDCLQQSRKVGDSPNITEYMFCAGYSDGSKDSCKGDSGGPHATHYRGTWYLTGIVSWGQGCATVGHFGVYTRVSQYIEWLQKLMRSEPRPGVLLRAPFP
Text: FIGS. 1A-1H show design and functional characterization of low affinity FXa variants. FIG. 1A illustrates the computational strategy using RosettaDesign and homology insertion. […] Variants 69 and 70 are located on the same region between H311 and T318. […] FIG. 1F is a graph showing the rate of chromogenic substrate cleavage in pure buffer systems by FXa variants at different concentrations. […] Values for IC50±SD were obtained from fitted curves. […] The top spectrum is the result of superposition of ligand and protein signals with no alteration. The reference NMR spectrum (middle) contains only sharp signals, as expected for an NMR spectrum of a small molecule.
The final models allowed identification of clashes with apixaban. Following manual inspection of the models, 21 designs were selected. […] (ii) Two proteins were used as homology models to identify potential mutations to include as insertions. The human factor VII (FVII) (PDB ID: 1DAN) crystal structure was superimposed onto the human FXa (PDB ID: 2P16) crystal structure and differences in amino acid identity were analyzed. Final insertion identities were based on proximity to binding pocket and length. […] Seven FXa variants were selected based on this strategy. Some of these designs failed experimental validations. In a follow up round of homology-based designs, the insertions from Factor VII were decreased in length and number. […]

[1] = Inhibition of FXa variant chromogenic substrate cleavage by apixaban (IC50); assay type: biochemical, human; conditions: for IC50: apixaban, fixed amounts of FXa variants, increasing apixaban concentrations
Experimental: Chromogenic FXa activity assay: The FXa activity assay based on CS11(65)a chromogenic substrate (Biophen) was performed as described below. […] For each sample, substrate cleavage was calculated by taking the average rate over the time frame between 1 and 2 minutes.
Activity and inhibitory concentration were determined for a larger series of variants (FIGS. 2A and 2B). Activities for all variants were determined using the rate of chromogenic substrate cleavage in pure buffer system at different FXa concentrations. Variants were assigned into five brackets (FIG. 2A). […] To be assigned as potentially beneficial the combined scores were ***** but the individual score could not be less than **.

[2] = test system: tissue factor (TF)-triggered pooled normal human plasma; assay: Thrombin generation assay in plasma spiked with apixaban; assay type: biochemical
Experimental: Thrombin generation assay: The procoagulant activity of FXa variants was evaluated by a previously described thrombin generation assay in tissue factor (TF)-triggered pooled normal human plasma (Affinity Biologicals Inc, Ontario, Canada). […] Fluorescence (product of thrombin substrate consumption) was recorded in a kinetic mode at 37° C. using a Tecan Infinite F500 every 45 seconds for a period of 1.7 hours. In-house software was used to calculate calibrate thrombin generation assay (using an internal thrombin calibrator CAT® from Stago, Parsippany, NJ, USA) and calculate thrombin peak height parameter.

[3] = molecular target: T2, Tissue factor pathway inhibitor (TFPI) (Homo sapiens, UniProt P10646); assay: ACTICHROME TFPI assay; assay type: biochemical; conditions: 4 nM variants vs 100 nM andexanet alfa, FIG. 5
T2 construct: BioMedica Diagnostics (assay kit)
T2 sequence (P10646 29-304): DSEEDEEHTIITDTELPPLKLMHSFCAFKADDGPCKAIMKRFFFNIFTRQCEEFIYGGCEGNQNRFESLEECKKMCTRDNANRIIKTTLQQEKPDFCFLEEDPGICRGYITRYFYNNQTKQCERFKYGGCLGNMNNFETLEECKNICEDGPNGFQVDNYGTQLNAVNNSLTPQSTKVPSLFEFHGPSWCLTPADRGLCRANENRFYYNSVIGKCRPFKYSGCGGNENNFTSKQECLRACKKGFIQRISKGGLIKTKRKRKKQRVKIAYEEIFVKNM
Experimental: Tissue factor pathway inhibitor (TFPI) plays a very important role in regulation of the procoagulant activity of tissue factor (TF). […] TFPI activity was determined using ACTICHROME® TFPI assay (BioMedica Diagnostics) according to manufacturer's protocol.

[4] = molecular target: Tissue factor pathway inhibitor (TFPI), P10646

Molecule: COc1ccc(-n2nc(C(N)=O)c3c2C(=O)N(c2ccc(N4CCCCC4=O)cc2)CC3)cc1 [apixaban, reference compound]
- Bleeding profile (bleeding graphs) (Male CD-1 mice): mostly uninterrupted flow of blood
- Bleeding time, apixaban group compared to the control group (Male CD-1 mice; tail clip, FIG. 3C): significantly greater
- binding to FVII by NMR (Factor VII (FVII)): does not bind to FVII

Molecule: Variant 61: modified Factor Xa polypeptide, W439A, S4 subsite, SEQ ID NO: 2
- fold higher IC50 values for apixaban compared to the wild-type FXa ([1]; FIG. 1G): ~350 fold
- IC50 [1]: > 251 nM
- Km ([2]; activity in the presence of a fixed amount (1 μM) of apixaban, read-out: apparent Km): 1.1 ± 0.171 µM
- potency compared with wild type FXa ([2]; thrombin generation assay as worded): less potent than wild type FXa
- Bleeding time (Male CD-1 mice; 1 mg/kg infused 5 min after apixaban, FIG. 3C): significantly reduced bleeding time
- Blood loss (Male CD-1 mice; 1 mg/kg infused 5 min after apixaban, FIG. 3D): successfully reversed the anticoagulant effect of apixaban
- Bleeding profile (bleeding graphs) (Male CD-1 mice): multiple breaks in blood flowing from the tail cut
- Bleeding time (Male CD-1 mice; apixaban dose of 4 mg/kg, FIG. 4B): significant decrease
- Blood loss (Male CD-1 mice; apixaban dose of 4 mg/kg, FIG. 4C): significant decrease
- response to TFPI (TFPI activity) [3]: much smaller response to TPFI compared to andexanet alfa

Molecule: Variant 65: modified Factor Xa polypeptide, G440A, S1 subsite, SEQ ID NO: 8
- IC50 [1]: 151 to 250 nM

B1: FXa variant 70 (amino acids 312-317 replaced with STYVPG) (protein)
chain: GPANSFLEEMKKGHLERECMEETCSYEEAREVFEDSDKTNEFWNKYKDGDQCETSPCQNQGKCKDGLGEYTCTCLEGFEGKNCELFTRKLCSLDNGDCDQFCHEEQNSVVCSCARGYTLADNGKACIPTGPYPCGKQTLERRKRSVAQATSSSGEAPDSITWKPYDAADLDPTENPFDLLDFNQTQPERGDNNLTRIVGGQECKDGECPWQALLINEENEGFCGGTILSEFYILTAAHCLYQAKRFKVRVGDRNTEQEEGGEAVHEVEVVIKHSTYVPGTYDFDIAVLRLKTPITFRMNVAPACLPERDWAESTLMTQKTGIVSGFGRTHEKGRQSTRLKMLEVPYVDRNSCKLSSSFIITQNMFCAGYDTKQEDACQGDSGGPHVTRFKDTYFVTGIVSWGEGCARKGKYGIYTKVTAFLKWIDRSMKTRGLPKAKSHAPEVITSSPLK
- TFPI activity (ACTICHROME TFPI assay) [4]: both variants #61 and #70 showed much smaller response to TPFI compared to andexanet alfa
